These results are taken from PubChem BioAssay (NCI).

Each structure is given as a SMILES string.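 Method: 48-hour compound exposure of cells in 96-well plates, five concentrations, linear interpolation of endpoints. The concentration for 50% growth inhibition is given as GI50. At the TGI there is no net growth.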

Among the test systems are KM12 colon; ACHN renal; OVCAR-4 ovarian; EKVX NSCLC; MOLT-4 leukemia; MDA-MB-231 breast; OVCAR-8 ovarian; SF-539 CNS; SK-MEL-5 melanoma; HOP-62 NSCLC.
What all share (assay): NCI anticancer screen, dose series, 48 h

For `N#CC1=C(/N=C/c2ccccc2)Oc2c(ccc3ccccc23)C1c1ccccc1` (stereo not given), the GI50 was 0.46 µM in the test on KM12 colon; 0.591 µM with ACHN renal; 0.698 µM in the test with OVCAR-4 ovarian; 5.13 µM in the test on EKVX NSCLC; 0.935 µM with MOLT-4 leukemia; 1.31 µM with MDA-MB-231 breast. Also, the GI50 is 0.708 µM in the test on OVCAR-8 ovarian, 0.335 µM in the test with SF-539 CNS, 0.378 µM in the test with SK-MEL-5 melanoma and 0.646 µM with HOP-62 NSCLC. For the same compound, the TGI with KM12 colon was more than 100 µM; with ACHN renal it was more than 100 µM; in the test with OVCAR-4 ovarian, more than 100 µM; with EKVX NSCLC, more than 100 µM; in the test on MOLT-4 leukemia, more than 100 µM; in the test on MDA-MB-231 breast, 20.5 µM. Besides, the TGI is more than 100 µM in the test with OVCAR-8 ovarian, 2.06 µM in the test with SF-539 CNS, 2.5 µM in the test on SK-MEL-5 melanoma and more than 100 µM in the test on HOP-62 NSCLC.
For the compound `COc1cc(/C=C/C(=O)c2cccc(-n3cc(-c4ccc(Cl)cc4)[nH]c3=O)c2)cc(OC)c1OC`, the GI50 in the test with KM12 colon is 5.45 µM; in the test with ACHN renal it was 7.17 µM; in the test on OVCAR-4 ovarian, 11.4 µM; with EKVX NSCLC, 23.9 µM; with MOLT-4 leukemia, 5.24 µM; in the test on MDA-MB-231 breast, 13.8 µM. In addition, the GI50 is 3.85 µM with OVCAR-8 ovarian, 3.49 µM in the test with SF-539 CNS, 8.7 µM in the test on SK-MEL-5 melanoma and 23.6 µM in the test with HOP-62 NSCLC. In addition, the TGI was 18.6 µM with KM12 colon; 19.5 µM in the test on ACHN renal; 38 µM with OVCAR-4 ovarian; more than 100 µM in the test on EKVX NSCLC; more than 100 µM in the test on MOLT-4 leukemia; 48.6 µM in the test on MDA-MB-231 breast. Also, the TGI was more than 100 µM with OVCAR-8 ovarian, 14.3 µM with SF-539 CNS, 23.7 µM with SK-MEL-5 melanoma and 57.3 µM in the test on HOP-62 NSCLC.
In the case of `c1ccc2c(c1)Nc1ccncc1S2`, the GI50 with KM12 colon is 14.2 µM; in the test with ACHN renal, 17.9 µM; in the test with OVCAR-4 ovarian it was 23.7 µM; in the test with EKVX NSCLC, 12.1 µM; in the test with MOLT-4 leukemia, 31.1 µM; in the test on MDA-MB-231 breast it was 26.9 µM. Besides, the GI50 with OVCAR-8 ovarian is 21.6 µM; in the test with SF-539 CNS, 19.7 µM; in the test on SK-MEL-5 melanoma, 25.8 µM; in the test on HOP-62 NSCLC it was 19.5 µM. Further, the TGI in the test on KM12 colon was 42.5 µM; with ACHN renal, more than 100 µM; with OVCAR-4 ovarian, more than 100 µM; with EKVX NSCLC it was 81.5 µM; with MOLT-4 leukemia, more than 100 µM; in the test with MDA-MB-231 breast it was more than 100 µM. The TGI in the test on OVCAR-8 ovarian is more than 100 µM; in the test with SF-539 CNS it was 67.1 µM; with SK-MEL-5 melanoma it was more than 100 µM; with HOP-62 NSCLC, more than 100 µM.
For `COC1C(N)C(OC2C(Oc3cccc4c(O)c5c(=O)oc6ccc(C)c7c(=O)oc(c34)c5c67)OC(C)C(O)C2(C)O)OC(C)C1O` (stereo not given), the TGI in the test with KM12 colon was found to be 0.366 µM; in the test on ACHN renal it was 1.5 µM; in the test with OVCAR-4 ovarian, 2.28 µM; in the test on EKVX NSCLC it was 1.03 µM; in the test on MOLT-4 leukemia, 1.96 µM; in the test on MDA-MB-231 breast it was 1.74 µM. Moreover, the TGI in the test on OVCAR-8 ovarian came to 0.212 µM; with SF-539 CNS, 0.208 µM; in the test on SK-MEL-5 melanoma, 0.265 µM; in the test with HOP-62 NSCLC, 0.258 µM.
For `CCC1(O)C(=O)OCc2c1cc1n(c2=O)Cc2cc3c(NC(=O)CN)cccc3nc2-1` (stereo not given), the GI50 in the test with KM12 colon is 1.87 µM; in the test with ACHN renal it was 0.187 µM; in the test with OVCAR-4 ovarian it was 7.53 µM; in the test with EKVX NSCLC, 19.7 µM; with MOLT-4 leukemia, 0.0438 µM; in the test with MDA-MB-231 breast it was 58.1 µM. Moreover, the GI50 was 0.557 µM with OVCAR-8 ovarian, 0.11 µM with SF-539 CNS, 0.8 µM in the test with SK-MEL-5 melanoma and 0.0847 µM in the test with HOP-62 NSCLC. In addition, the TGI is 44.7 µM in the test on KM12 colon; 2.71 µM in the test with ACHN renal; 36.7 µM in the test with OVCAR-4 ovarian; more than 88.2 µM with EKVX NSCLC; 1.13 µM in the test with MOLT-4 leukemia; more than 100 µM in the test with MDA-MB-231 breast. Besides, the TGI worked out at 30.2 µM in the test on OVCAR-8 ovarian, 0.821 µM in the test on SF-539 CNS, 4.78 µM in the test with SK-MEL-5 melanoma and 0.622 µM in the test on HOP-62 NSCLC.
For `O=C(/C=C/c1cccc(O)c1)c1cccc(-n2cc(-c3ccccc3)[nH]c2=O)c1`, the GI50 in the test with KM12 colon is 1.78 µM; with ACHN renal, 2.72 µM; in the test on OVCAR-4 ovarian, 4.15 µM; in the test with EKVX NSCLC, 7.18 µM; in the test with MOLT-4 leukemia, 3.38 µM; with MDA-MB-231 breast it was 3.59 µM. In addition, the GI50 is 2.86 µM in the test with OVCAR-8 ovarian, 1.97 µM in the test with SF-539 CNS, 2.41 µM with SK-MEL-5 melanoma and 4.27 µM with HOP-62 NSCLC. Besides, the TGI with KM12 colon was 3.46 µM; with ACHN renal, 7.4 µM; in the test on OVCAR-4 ovarian, more than 37 µM; with EKVX NSCLC it was 23 µM; with MOLT-4 leukemia it was more than 27.3 µM; in the test with MDA-MB-231 breast, 12.6 µM. The TGI was 10.5 µM with OVCAR-8 ovarian, 3.84 µM in the test with SF-539 CNS, 6.59 µM with SK-MEL-5 melanoma and more than 25.9 µM with HOP-62 NSCLC.
Turning to `COC(=O)c1cc2c(cc1Cl)SC1=NN(C)C(N(C)C)N1S2(=O)=O` (stereo not given), the GI50 is more than 100 µM in the test on KM12 colon; more than 100 µM in the test on ACHN renal; more than 100 µM with OVCAR-4 ovarian; more than 100 µM in the test on EKVX NSCLC; 62.8 µM with MOLT-4 leukemia; more than 100 µM in the test with MDA-MB-231 breast. For the same compound, the GI50 in the test with OVCAR-8 ovarian, with SF-539 CNS, in the test with SK-MEL-5 melanoma and with HOP-62 NSCLC was more than 100 µM throughout. Also, the TGI with KM12 colon, in the test on ACHN renal, in the test on OVCAR-4 ovarian, in the test with EKVX NSCLC, in the test with MOLT-4 leukemia and in the test on MDA-MB-231 breast was more than 100 µM each time. For the same compound, the TGI with OVCAR-8 ovarian, with SF-539 CNS, in the test on SK-MEL-5 melanoma and with HOP-62 NSCLC was more than 100 µM each time.
